Assay results from patent US7470680B2, “Constrained compounds as CGRP-receptor antagonists” (Bristol-Myers Squibb Company, priority 2006, dated 2008).

How the values were obtained:
[1] = molecular target: T1, CGRP receptor (Homo sapiens, UniProt O60894+Q16602); experiment: Cyclic AMP functional antagonism assay in SK-N-MC cells; format: cell-based; parameters: SK-N-MC cells that endogenously express the human CGRP receptor; endogenous in cells; host or cells: SK-N-MC cells; conditions: Table 2; inhibition of 0.3 nM CGRP-induced cAMP in SK-N-MC cells; read-out: cAMP Function IC50
Experimental: Cyclic AMP Functional Antagonism Assay. Antagonism of the compounds of invention was determined by measuring the formation of cyclic AMP (adenosine 3′5′-cyclic monophosphate) in SK-N-MC cells that endogenously express the human CGRP receptor. CGRP receptor complex is coupled with Gs protein and CGRP binding to this complex leads to the cyclic AMP production via Gs-dependent activation of an adenylate cyclase (Juaneda C. et al., TiPS, 2000; 21:432-438). Consequently, CGRP receptor antagonists inhibit CGRP—induced cyclic AMP formation in SK-N-MC cells (Doods H, et al., Br J Pharmacol, 2000; 129(3):420-423). For cyclic AMP measurements SK—N-MC cells were incubated with 0.3 nM CGRP alone or in the presence of various concentrations of the compounds of invention for 30 min at room temperature. Compounds of invention were pre-incubated with SK—N-MC cells for 15 min before the addition of CGRP to allow receptor occupancy (Edvinsson et al., Eur J Pharmacol, 2001, 415:39-44). Cyclic AMP was extracted using the lysis reagent and its concentration was determined by radioimmunoassay using RPA559 cAMP SPA Direct Screening Assay Kit (Amersham Pharmacia Biotech). IC50 values were calculated using Excel fit.

[2] = molecular target: T1, CGRP receptor; experiment: CGRP radioligand binding assay ([125I]-CGRP displacement, SK-N-MC homogenate); parameters: endogenous in cells; host or cells: SK-N-MC cells (homogenate/membrane pellet); conditions: Table 2; displacement of [125I]-CGRP, SK-N-MC membranes
Experimental: CGRP Binding Assay. Tissue Culture. SK-N-MC cells were grown at 37° C. in 5% CO2 as a monolayer in medium consisting of MEM with Earle's salts and L-glutamine (Gibco) supplemented with 10% fetal bovine serum (Gibco). Cell Pellets. The cells were rinsed twice with phosphate-buffered saline (155 mM NaCl, 3.3 mM Na2HPO4, 1.1 mM KH2PO4, pH 7.4), and incubated for 5-10 min. at 4° C. in hypotonic lysis buffer consisting of 10 mM Tris (pH 7.4) and 5 mM EDTA. The cells were transferred from plates to polypropylene tubes (16×100 mm) and homogenized using a polytron. Homogenates were centrifuged at 32,000×g for 30 min. The pellets were resuspended in cold hypotonic lysis buffer with 0.1% mammalian protease inhibitor cocktail (Sigma) and assayed for protein concentration. The SK-N-MC homogenate was then aliquoted and stored at −80° C. until needed.
Radioligand Binding Assay. The compounds of invention were solubilized and carried through serial dilutions using 100% DMSO. Aliquots from the compound serial dilutions were further diluted 25 fold into assay buffer (50 mM Tris-Cl pH 7.5, 5 mM MgCl2, 0.005% Triton X-100) and transferred (volume 50 μl) into 96 well assay plates. [^125I]-CGRP (Amersham Biosciences) was diluted to 60 pM in assay buffer and a volume of […] was added to each well. SK-N-MC pellets were thawed, diluted in assay buffer with fresh 0.1% mammalian protease inhibitor cocktail (Sigma), and homogenized again. SK-N-MC homogenate (5 μg/well) was added in a volume of 100 μl. The assay plates were then incubated at room temperature for 2 h. Assays were stopped by addition of excess cold wash buffer (20 mM Tris-Cl pH 7.5, 0.1% BSA) immediately followed by filtration over glass fiber filters (Whatman GF/B) previously soaked in 0.5% PEI. Non-specific binding was defined with 1 μM beta-CGRP. Protein bound radioactivity was determined using a gamma or scintillation counter. The IC50 was defined as the concentration of a compound of invention required to displace 50% of radioligand binding.

T1 sequence (Q16602 23-461): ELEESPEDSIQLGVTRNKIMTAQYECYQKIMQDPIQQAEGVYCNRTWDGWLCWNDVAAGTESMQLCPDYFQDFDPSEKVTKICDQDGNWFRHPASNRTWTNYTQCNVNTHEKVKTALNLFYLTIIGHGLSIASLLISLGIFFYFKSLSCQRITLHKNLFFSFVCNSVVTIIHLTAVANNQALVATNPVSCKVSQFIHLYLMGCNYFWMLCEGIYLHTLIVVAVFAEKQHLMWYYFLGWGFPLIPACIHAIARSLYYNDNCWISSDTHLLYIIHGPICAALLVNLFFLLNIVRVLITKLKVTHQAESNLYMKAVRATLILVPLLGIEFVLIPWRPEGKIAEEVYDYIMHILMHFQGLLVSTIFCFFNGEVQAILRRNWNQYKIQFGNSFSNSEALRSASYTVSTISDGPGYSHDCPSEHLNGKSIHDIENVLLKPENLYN
T1 sequence (O60894 27-148): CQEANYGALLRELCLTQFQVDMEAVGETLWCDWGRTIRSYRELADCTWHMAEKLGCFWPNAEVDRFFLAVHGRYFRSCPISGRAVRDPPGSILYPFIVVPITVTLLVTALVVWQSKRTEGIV

Structure (SMILES)	IC50 [1]	IC50 [2]
CC(C)(C)CN1Cc2c(cc(Cl)c3[nH]ncc23)C[C@@H](CC(=O)N2CCC(c3cc4ccccc4[nH]c3=O)CC2)C1=O	0.01 to 10 nM	0.01 to 10 nM
CC(C)(C)CN1Cc2c(cc(Cl)c3[nH]ncc23)C[C@@H](CC(=O)N2CCC(n3cc(-c4ccccn4)[nH]c3=O)CC2)C1=O	0.01 to 10 nM	0.01 to 10 nM
CC(C)(C)CN1Cc2c(cc(Cl)c3[nH]ncc23)C[C@@H](CC(=O)N2CCC3(CC2)NC(=O)Nc2ccccc23)C1=O	0.01 to 10 nM	0.01 to 10 nM

Further lines, results first:

IC50 [1]	IC50 [2]	Structure (SMILES)
0.01 to 10 nM	0.01 to 10 nM	CC(C)(C)CN1Cc2c(cc(Cl)c3[nH]ncc23)C[C@@H](CC(=O)N2CCC(N3Cc4ccccc4CC3=O)CC2)C1=O
0.01 to 10 nM	0.01 to 10 nM	CC(C)(C)CN1Cc2c(cc(Cl)c3[nH]ncc23)C[C@@H](CC(=O)N2CCC(n3cc(-c4ccccc4)[nH]c3=O)CC2)C1=O
